Data: patent US20070010428A1, “Inhibitors of signal transduction and activator of transcription 3” (priority 2004, published 2007)
Like-named read-outs stand apart in the source and are kept apart here. Blank lines part the entries; values can stand above or below the molecule they belong to. Where a SMILES comes first, the peptide text is derived from it. [ ]: non-standard residue; d: D form. pY = N[C@@H](Cc1ccc(OP(=O)(O)O)cc1)C(=O)O; mts = not defined here

Experiments:
SH2 domain of Stat3 = assay: IC50 FP (nM)
Experimental: Table printed on a drawing sheet, FIGURE 14a
Head of the field: IC50 FP (nM)
First copying reader's note: The column headed 'Structure' holds only drawn chemical structures (left empty here); the written peptidomimetic sequence stands in an unheaded column to its left.
Where the first naming reader finds the target: passage: The small peptidomimetics were assayed for their ability to bind to the SH2 domain of Stat3 using fluoresence polarization.

Stat3 [1] = molecular target: T1, Stat3 (Homo sapiens, UniProt P40763); assay: EMSA of inhibition of Stat3 dimerization and DNA binding by phosphopeptides; assay type: biochemical; settings: averages of two determinations
T1 sequence (P40763 whole entry, species assumed, the tested form may be a part): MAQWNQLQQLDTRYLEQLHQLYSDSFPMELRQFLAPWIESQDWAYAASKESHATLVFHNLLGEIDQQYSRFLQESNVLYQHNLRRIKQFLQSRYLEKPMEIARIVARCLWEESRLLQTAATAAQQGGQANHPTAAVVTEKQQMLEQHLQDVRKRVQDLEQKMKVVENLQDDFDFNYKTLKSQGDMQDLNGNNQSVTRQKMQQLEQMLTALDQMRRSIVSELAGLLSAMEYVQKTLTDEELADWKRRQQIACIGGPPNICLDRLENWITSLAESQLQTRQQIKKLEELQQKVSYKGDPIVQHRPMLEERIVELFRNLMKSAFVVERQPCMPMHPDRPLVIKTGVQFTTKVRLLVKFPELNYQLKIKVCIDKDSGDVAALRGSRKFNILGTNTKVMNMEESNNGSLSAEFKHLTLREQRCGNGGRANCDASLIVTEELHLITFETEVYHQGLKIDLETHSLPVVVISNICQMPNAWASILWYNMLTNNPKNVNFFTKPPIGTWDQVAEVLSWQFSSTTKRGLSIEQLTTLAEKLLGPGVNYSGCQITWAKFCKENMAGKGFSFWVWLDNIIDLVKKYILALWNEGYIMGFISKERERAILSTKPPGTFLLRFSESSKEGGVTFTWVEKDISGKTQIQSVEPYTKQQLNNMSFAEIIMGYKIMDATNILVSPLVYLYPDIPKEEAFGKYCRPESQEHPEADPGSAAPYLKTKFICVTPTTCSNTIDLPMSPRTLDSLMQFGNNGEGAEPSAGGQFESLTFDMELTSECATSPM
Experimental: To find a lead compound for inhibitor development, a series of phospho-hexapeptides derived from known receptor docking sites for Stat3 were synthesized and assayed for their ability to inhibit Stat3 dimerization and DNA binding using electrophoretic mobility shift assays (EMSA) (Ren et al., 2003). […] SAR experiments were conducted systematically replacing each amino acid. The goal was to find non-peptidic groups that would be stable to phosphatases and proteases, and that would be more hydrophobic to allow greater bioavailability. […] The small peptidomimetics were assayed for their ability to bind to the SH2 domain of Stat3 using fluoresence polarization.
(§1) Nuclear extract was extracted as previously described (Andrews and Faller, 1991). Equal amount of nuclear extract protein was then incubated with ^32P labeled high-affinity c-sis-inducible element (hSIE; 5′-[…]-3′ , SEQ ID NO:25) (Santa Cruz). The reactions were performed in a total volume of 24 μl in buffer consisting of 10 mM HEPES (pH 7.8), 50 mM KCl, 1 mM EDTA, 5 mM MgCl2, 10% glycerol, 5 mM dithiothreitol, 1 mg of bovine serum albumin per ml, 0.5 mM phenyl-methylsulfonylflouride, and 1 mM Na3VO4 with 1 μg of poly (dI-dC) and 0.3 ng of ^32P-labeled hSIE. […] The screen was then scanned and the bands showing Stat3-DNA binding were quantified using the Storm System (Molecular Dynamics).

full length Stat3 = molecular target: T2, full length Stat3 (Homo sapiens, UniProt P40763); assay: Fluorescence polarization assay, competition with FP probe for full length Stat3; assay type: binding
T2 construct: Aliquots of 50 μl of 80 nM full length Stat^3a and 20 nM of probe
T2 sequence (P40763 whole entry, species assumed): as the sequence (P40763 whole entry, species assumed, the tested form may be a part) above
Experimental: FIG. 5 is FP curves of Stat3. Left panel, Titration of full length Stat3 into 10 nM solutions of FP probe. Each protein concentration was run in duplicate and the mean ±½ the difference between the high and low value was plotted. […] Each peptide concentration was run in duplicate and the mean ±½ the difference between the high and low value was plotted. A Perkin Elmer (formerly Packard) 204DT Multiprobe liquid handling robot was used to prepare serial dilutions of the inhibitors and to add these solutions to Stat3-probe solutions. The dilutions and additions were done in 96-well plates and FP was read on a Tecan Polarian plate reader. […]
Fluorescence polarization (FP) is a rapid and easy method for the measurement of peptide-protein interactions, drug-protein interactions, and drug-oligonucleotide interactions, and is readily adaptable to high throughput formats (reviewed in Nasir & Joley, 1999; Owicki, 2000). FP involves exciting a fluorophore with polarized light and taking the ratio of fluorescence at right angles after a brief period of time. […]
Aliquots of 50 μl of 80 nM full length Stat^3a and 20 nM of probe in 50 mM NaCl, 10 mM Hepes, 1 mM Na4EDTA, 2 mM DTT, and 1% NP-40 were placed in wells of a 96 well black, opaque, non-stick microtiter plate. […] Fluorescence polarization was then read in a Tecan Polarian plate reader. […]

[2] = tested on: Stat3-responsive α2-macroglobulin promoter; assay: IL-6 stimulated luciferase reporter under α2-macroglobulin promoter in HEPG2 cells; assay type: cell-based; settings: for inhibition of luciferase activity, initial screen: IL-6
Experimental: Liver hepatoma cells, HEPG2, when stimulated with IL-6, respond by increased phosphorylation of Stat3, which translocates to the nucleus and initiates transcription of acute response phase genes, such as a2-macroglobulin. HEPG2 cells were transfected with luciferase gene construct containing the α2-macroglobulin promoter. Cells were treated with peptides 21, 24, and 25 for 1 hr before stimulation with IL-6. Four hours later cells were lysed and luciferase activity was assayed (FIG. 9). […] Phosphopeptide 24 reduced induction to 60-70% of that of IL-6 at 50 and 100 μM.
(§2) Cell culture and transient transfection. HepG2 cells were grown in DMEM containing 10% fetal bovine serum. Cells were plated at a density of 3×10^5 per 6cm dish. Next day, plasmids were transfected with a plasmid comprised of firefly luciferase under the α2-macroglobulin promoter (Ren & Schaefer, 2002) at a ratio of 1 μg DNA to 3 μl Fugene-6 reagent according to the protocol supplied by Roche. After 48 hours, cells were treated with different peptides in serum free media for 1 hour, and then stimulated with […] IL-6. Cells were harvested at the time indicated.
(§3) Luciferase assay. Luciferase assay reagents were purchased from Promega and the assays performed according to the manufacturer's protocol. In brief, cells were washed twice with ice-cold PBS and then collected. After centrifugation at 4,500 rpm for 1 minute, cells were lysed in 1× lysis buffer (Promega) at room temperature for 30 minutes. The lysate was cleared by centrifugation at 13,000 rpm for 10 minutes. Then 50 μl of luciferase substrate was added to 10 μl of supernatant and the luciferase value was read by luminometer (Pharmingen). Each transfection was normalized to concomitant β-galactosidase expression from a control transfected plasmid pYN3214-lacZ.

[3] = tested on: Stat3-responsive α2-macroglobulin promoter; assay: IL-6 stimulated luciferase reporter in Hep3B cells; assay type: cell-based; settings: FIG. 10
Experimental: Peptidomimetic 23 was tested for the ability to inhibit luciferase induction in a second hepatoma cell line: Hep3B. Identical procedures as for the HEPG2 experiments above were used in this cell line.
as §2
as §3, with “Each transfection was normalized to concomitant β-galactosidase expression from a control transfected plasmid pYN3214-lacZ.” left out

Stat3 [4] = molecular target: T1, Stat3; assay: Stat3 nuclear translocation, EMSA of nuclear extracts of IL-6 stimulated HepG2 cells; assay type: cell-based; settings: HepG2, 100 μM for 1 hr, IL-6 15 min
Experimental: FIG. 11 is an image of a gel showing EMSA of nuclear extracts of HEPG2 cells inhibited with peptides. Shown are gels from two independent experiments. Lane 1, control: no IL-6 or inhibitor. Lane 2-6 are all stimulated with IL-6, 6 ng/mL. Lane 2, no inhibitor, Lane 3 phosphopeptide 24, Lane 4, control peptide 25, Lane 5, F2PmCinn peptide 21, Lane 6, prodrug 23.
HepG2 cells were treated with 100 μM peptide for 1 hr. Cells were stimulated with IL-6 and 15 min later cells were lysed and nuclear extracts were obtained.
as §1, with “hSIE. Following incubation for 15 min at room temperature, the reactions were electrophoresed on 4% native polyacrylamide gets.” for “hSIE.”

Stat3 [5] = molecular target: T1, Stat3; settings: cited from earlier work

IC50 (SH2 domain of Stat3): 50 nM
Molecule: pCinn-Cha-Pro-Gln- NHBn [7 | PM-66D]

Molecule: CC(=O)N[C@@H](Cc1ccc(OP(=O)(O)O)cc1)C(=O)N[C@@H](CC(C)C)C(=O)N[C@@H](CCCCN)C(=O)N[C@H](C(=O)N[C@@H](CCCCN)C(=O)N[C@@H](Cc1ccccc1)C(N)=O)[C@@H](C)O [Peptide 2, Ac-pTyr-Leu-Lys-Thr-Lys-Phe-NH2] (Ac-[pY]LKTKF-NH2)
IC50 (Stat3 [1]): 20000 nM

Molecule: NC(=O)CCC(NC(=O)C1CCC2CCC(NC(=O)C=Cc3ccc(OP(=O)(O)O)cc3)C(=O)N21)C(=O)NCc1ccccc1 (stereo not drawn) [FIG. 15 compound]
IC50 (full length Stat3; assay not named, presumably fluorescence polarization, read-out: IC50 of the FIG. 15 compound): 400 nM

Molecule: H-Pro-pTyr-Leu-Lys-Thr-Lys-Phe-Ile-mts (H-P[pY]LKTKFI-mts; reading uncertain; also: printed as H-Pro-pTyr-Leu-Lys-Thr-Lys-Phe-Ile-mts) [Peptide 27, reported by Turkson et al (2001), reference compound]
inhibition of luciferase activity, initial screen ([2]; HEPG2, 100 μM): neither phosphopeptide 26 nor the unphosphorylated version, 27 (Turkson et al, 2001), showed inhibition of luciferase activity

Molecule: CC(=O)NC(Cc1ccc(OP(=O)(O)O)cc1)C(=O)NC1CCc2cccc3c2N(C1=O)C(C(=O)NC(CCC(N)=O)C(=O)NC(C(N)=O)C(C)O)C3 (stereo not drawn) [Compound 10, Ac-pTyr-Haic-Gln-Thr-NH2]
IC50 (full length Stat3; 10 nM probe and 40 nM Stat3 final, read-out: IC50 (fluorescence polarization)): 100 to 200 nM

Molecule: F2Pm(POM)Cinn-Haic-Gln-NHBn [Compound 23]
reduction in luciferase activity [3]: dose dependant reduction in luciferase activity
inhibition of Stat3 translocation to the nucleus (Stat3 [4]): inhibited Stat3 translocation to the nucleus

Molecule: Ac-Tyr-Leu-Pro-Gln-Thr-Val-mts (Ac-YLPQTV-mts; not fully specified; printed as Ac-Tyr-Leu-Pro-Gln-Thr-Val-mts; reading uncertain) [Peptide 25, non-phosphorylated control]
reduction in luciferase activity ([2]; HEPG2, 50 or 100 μM, 1 hr before IL-6, lysed 4 h later): no significant reduction in luciferase activity

IC50 (SH2 domain of Stat3): 100 nM
Molecule: pInd-Cha-Pro-Gln- NHBn [9 | PM-67D]

IC50 (SH2 domain of Stat3): 110 nM
Molecule: pCinn-Leu-Pro-Gln- Thr-NH2 [5 | PM-50D]

IC50 (SH2 domain of Stat3): 2000 nM
Molecule: F2PmCinn-Cha-Pro- Gln-NHBn [8 | PM-88D]

Molecule: CC(C)C[C@H](NC(=O)[C@H](Cc1ccc(OP(=O)(O)O)cc1)NC(=O)c1ccc(C#N)cc1)C(=O)O [ISS 610]
concentration required for activity in luciferase reporter and cell growth assays (Stat3 [5]; cell culture models, Turkson et al. (2004)): 1 mM

Molecule: Ac-pTyr-Leu-Pro-Gln-Thr-Val-mts (Ac-[pY]LPQTV-mts; reading uncertain; also: printed as Ac-pTyr-Leu-Pro-Gln-Thr-Val-mts) [Peptide 24]
luciferase induction, % of that of IL-6 ([2]; HEPG2, at 50 and 100 μM): 60-70%

Molecule: H-P[pY]LKTKAAVLLPVLLAAP-OH [SEQ ID NO:4]
concentration required to inhibit luciferase reporter gene expression, Stat3 nuclear translocation, and cell growth (Stat3 [5]; cell culture, Turkson et al.): 0.5 to 1 mM

Molecule: F2PmCinn-Leu-Pro-Gln-Thr-Val-Ala-Ala-Val-Leu-Leu-Pro-Val-Leu-Leu-Ala-Ala-Pro-NH2 [Peptide 21]
luciferase activity, % of untreated cells ([2]; HEPG2, 50 μM): 50%
luciferase activity, % of untreated cells ([2]; HEPG2, 100 μM): 25%
inhibition of Stat3 translocation to the nucleus (Stat3 [4]): inhibited Stat3 translocation to the nucleus

Molecule: H-Pro-Tyr-Leu-Lys-Thr-Lys-Phe-Ile-mts (H-PYLKTKFI-mts; not fully specified; reading uncertain) [Peptide 26, reported by Turkson et al (2001), reference compound]
inhibition of luciferase activity, initial screen ([2]; HEPG2, 100 μM): neither phosphopeptide 26 nor the unphosphorylated version, 27 (Turkson et al, 2001), showed inhibition of luciferase activity
